Experimental data taken from patent US20080119501A1, “IMMEDIATE RELEASE OXYMORPHONE COMPOSITIONS AND METHODS OF USING SAME” (priority 2006, published 2008).

Experiment: Single- and multiple-dose pharmacokinetic and dose-proportionality study of oxymorphone IR tablets in healthy subjects
Conditions: for AUC∞, mean: n=23; for AUC(0-inf) / concentration at 6 day / concentration at 7 day / concentration at 8 day / Cmax / half-life: both, human, oral
[1] = single dose oxymorphone IR 5 mg
[2] = single dose oxymorphone IR 5 mg, plasma
[3] = single dose oxymorphone IR 10 mg
[4] = single dose oxymorphone IR 10 mg, plasma
[5] = single dose oxymorphone IR 20 mg
[6] = single dose oxymorphone IR 20 mg, plasma
[7] = steady state, oxymorphone IR 5 mg q6 h
[8] = steady state, oxymorphone IR 10 mg q6 h
[9] = steady state, oxymorphone IR 20 mg q6 h

CN1CC[C@]23c4c5ccc(O)c4O[C@H]2C(O)CC[C@@]3(O)[C@H]1C5 (stereo partly drawn) [6-OH-oxymorphone]
t1/2 (terminal elimination half-life), mean [1]: 7.27 h | terminal elimination rate constant, mean [1]: 0.1661 h⁻¹ | tmax, median [1]: 0.50 h | Cmax, mean [2]: 095 ng/mL | AUC∞, mean [2]: 0.00402 µg·h/mL | t1/2 (terminal elimination half-life), mean [3]: 13.72 h | terminal elimination rate constant, mean [3]: 0.0752 h⁻¹ | tmax, median [3]: 0.50 h | Cmax, mean [4]: 1.62 ng/mL | AUC∞, mean [4]: 0.0099 µg·h/mL | t1/2 (terminal elimination half-life), mean [5]: 18.35 h | terminal elimination rate constant, mean [5]: 0.0414 h⁻¹ | tmax, median [5]: 0.50 h | Cmax, mean [6]: 3.57 ng/mL | AUC∞, mean [6]: 0.02437 µg·h/mL | deviation from a linear dose response (single-dose administration): approximately 20% | AUCSS, mean [7]: 0.00498 µg·h/mL | Cavg (average plasma concentration), mean [7]: 0.83 ng/mL | Cmax, mean [7]: 1.55 ng/mL | Cmin, mean [7]: 0.70 ng/mL | tmax, median [7]: 0.50 h | AUCSS, mean [8]: 0.01077 µg·h/mL | Cavg (average plasma concentration), mean [8]: 1.80 ng/mL | Cmax, mean [8]: 3.12 ng/mL | Cmin, mean [8]: 1.52 ng/mL | tmax, median [8]: 0.50 h | AUCSS, mean [9]: 0.02368 µg·h/mL | Cavg (average plasma concentration), mean [9]: 3.95 ng/mL | Cmax, mean [9]: 6.94 ng/mL | Cmin, mean [9]: 3.34 ng/mL | tmax, median [9]: 0.50 h | deviation from a linear dose response (steady-state concentrations): approximately 10%

CN1CC[C@]23c4c5ccc(O)c4O[C@H]2C(=O)CC[C@@]3(O)[C@H]1C5 [Oxymorphone, oxymorphone]
dose proportionality of dose-normalised AUC∞, AUCss or Cmax (5-20 mg, single dose and steady state): linear and dose-proportional pharmacokinetics | AUC(0-inf) (plasma, 5 mg): 0.00448 µg·h/mL | concentration at 6 day (plasma, 5 mg): 0.47 ng/mL | concentration at 7 day (plasma, 5 mg): 0.5 ng/mL | concentration at 8 day (plasma, 5 mg): 0.49 ng/mL | Cmax (plasma, 5 mg, mean, single dose oxymorphone IR 5 mg): 1.1 ng/mL | Cmax (plasma, 5 mg, mean, steady state, oxymorphone IR 5 mg q6 h): 1.73 ng/mL | half-life (plasma, 5 mg, t1/2 (terminal elimination half-life), mean, single dose oxymorphone IR 5 mg): 7.25 h | AUC(0-inf) (plasma, 10 mg): 0.0091 µg·h/mL | concentration at 6 day (plasma, 10 mg): 0.98 ng/mL | concentration at 7 day (plasma, 10 mg): 0.99 ng/mL | concentration at 8 day (plasma, 10 mg): 1.16 ng/mL | Cmax (plasma, 10 mg, mean, single dose oxymorphone IR 10 mg): 1.93 ng/mL | Cmax (plasma, 10 mg, mean, steady state, oxymorphone IR 10 mg q6 h): 3.51 ng/mL | half-life (plasma, 10 mg, t1/2 (terminal elimination half-life), mean, single dose oxymorphone IR 10 mg): 7.78 h | AUC(0-inf) (plasma, 20 mg): 0.0201 µg·h/mL | concentration at 6 day (plasma, 20 mg): 2.05 ng/mL | concentration at 7 day (plasma, 20 mg): 2.31 ng/mL | concentration at 8 day (plasma, 20 mg): 2.47 ng/mL | Cmax (plasma, 20 mg, mean, single dose oxymorphone IR 20 mg): 4.39 ng/mL | Cmax (plasma, 20 mg, mean, steady state, oxymorphone IR 20 mg q6 h): 7.33 ng/mL | half-life (plasma, 20 mg, elimination half-life (t1/2) across doses, single dose, oxymorphone IR 5, 10 and 20 mg): 7.3 to 9.4 h | half-life (plasma, 20 mg, t1/2 (terminal elimination half-life), mean, single dose oxymorphone IR 20 mg): 9.43 h | time to achieve steady-state conditions (dosing every 6 hours, from trough concentrations): 3 to 4 days | CL/F (oral clearance), mean [1]: 23.53 L/min | Ln-CL/F, geometric least square mean (standard error), normalised to 10 mg [1]: 20.61 (1.05) L/min | terminal elimination rate constant, mean [1]: 0.1534 h⁻¹ | CL/F (oral clearance), mean [3]: 21.42 L/min | Ln-CL/F, geometric least square mean (standard error), normalised to 10 mg [3]: 19.62 (1.05) L/min | terminal elimination rate constant, mean [3]: 0.1257 h⁻¹ | CL/F (oral clearance), mean [5]: 18.21 L/min | Ln-CL/F, geometric least square mean (standard error), normalised to 10 mg [5]: 17.27 (1.05) L/min | terminal elimination rate constant, mean [5]: 0.0835 h⁻¹ | Ln-CL/F, geometric least square mean (standard error), normalised to 10 mg (steady state, every 6 hours, oxymorphone IR 5 mg): 18.70 (1.03) L/min | Ln-CL/F, geometric least square mean (standard error), normalised to 10 mg (steady state, every 6 hours, oxymorphone IR 10 mg): 17.08 (1.03) L/min | Ln-CL/F, geometric least square mean (standard error), normalised to 10 mg (steady state, every 6 hours, oxymorphone IR 20 mg): 16.72 (1.03) L/min | C/LF (oral clearance), mean [7]: 19.23 L/min | Cavg (average plasma concentration), mean [7]: 0.77 ng/mL | Cmin, mean [7]: 0.49 ng/mL | C/LF (oral clearance), mean [8]: 17.63 L/min | Cavg (average plasma concentration), mean [8]: 1.70 ng/mL | Cmin, mean [8]: 1.16 ng/mL | tmax, median [8]: 0.50 h | C/LF (oral clearance), mean [9]: 17.68 L/min | Cavg (average plasma concentration), mean [9]: 3.52 ng/mL | Cmin, mean [9]: 2.47 ng/mL

CN1CC[C@]23c4c5ccc(O[C@@H]6O[C@H](C(=O)O)[C@@H](O)[C@H](O)[C@H]6O)c4O[C@H]2C(=O)CC[C@@]3(O)[C@H]1C5 [Oxymorphone-3-glucuronide, oxymorphone-3-glucuronide]
t1/2 (terminal elimination half-life), mean [1]: 8.48 h | terminal elimination rate constant, mean [1]: 0.0936 h⁻¹ | tmax, median [1]: 1.00 h | Cmax, mean [2]: 134.24 ng/mL | AUC∞, mean [2]: 0.65003 µg·h/mL | t1/2 (terminal elimination half-life), mean [3]: 9.15 h | terminal elimination rate constant, mean [3]: 0.0805 h⁻¹ | tmax, median [3]: 1.00 h | Cmax, mean [4]: 265.78 ng/mL | AUC∞, mean [4]: 1.32272 µg·h/mL | t1/2 (terminal elimination half-life), mean [5]: 9.67 h | terminal elimination rate constant, mean [5]: 0.0763 h⁻¹ | tmax, median [5]: 1.00 h | Cmax, mean [6]: 516.26 ng/mL | AUC∞, mean [6]: 2.6724 µg·h/mL | AUCSS, mean [7]: 0.61877 µg·h/mL | Cavg (average plasma concentration), mean [7]: 103.13 ng/mL | Cmax, mean [7]: 180.25 ng/mL | Cmin, mean [7]: 59.67 ng/mL | tmax, median [7]: 1.00 h | AUCSS, mean [8]: 1.32137 µg·h/mL | Cavg (average plasma concentration), mean [8]: 220.23 ng/mL | Cmax, mean [8]: 376.25 ng/mL | Cmin, mean [8]: 136.77 ng/mL | tmax, median [8]: 1.00 h | AUCSS, mean [9]: 2.55729 µg·h/mL | Cavg (average plasma concentration), mean [9]: 426.22 ng/mL | Cmax, mean [9]: 722.24 ng/mL | Cmin, mean [9]: 272.54 ng/mL | tmax, median [9]: 1.00 h
